# Source: ChEMBL document CHEMBL3414502, “Identification of protein kinase CK2 inhibitors using solvent dipole ordering virtual screening” (Eur J Med Chem, 2015)
# pIC50: −log10 of the molar value. The source made the active and inactive calls. The rule behind the calls is not given here.
# Tests used:
# Casein kinase II = Casein kinase II (Homo sapiens, UniProt P19784+P67870+P68400); assay: Inhibition of CK2 kinase (unknown origin) using RRRDDDSDDD as substrate after 10 mins by topcount analysis in presence of [gamma-32P]ATP and 90 uM ATP; type: protein-complex assay
# [1] = molecular target: Casein kinase II (Homo sapiens) (UniProt P67870+P68400+P19784); assay: Competitive inhibition of CK2 kinase (unknown origin) by Lineweaver-Burk plot analysis in presence of ATP; type: protein-complex assay
SMILES,pIC50 (Casein kinase II),competitive inhibition (qualitative) [1]
CC(C)(C)c1ccc(C2=N/C(=C/c3ccc(C(=O)O)cc3)C(=O)O2)cc1,4.88,–
O=c1cc(-c2ccc(O)cc2)oc2c1ccc1ccccc12,5.01,Active
COc1ccc(/C=C2\Oc3cc(OCC(=O)O)ccc3C2=O)cc1OC,5.22,Active
COc1ccc(-c2nc(C(N)=O)c3[nH]c(=O)n(-c4ccc(OC)c(OC)c4)c3n2)cc1,4.30,–
O=C1OC(c2sc3ccccc3c2Cl)=N/C1=C/c1ccc(C(=O)O)cc1,5.22,–
O=c1[nH]c(-c2ccc(OCc3ccccc3)cc2)nc2c1cnn2-c1ccccc1,4.95,–
NC(=O)c1nc(-c2ccncc2)nc2c1[nH]c(=O)n2-c1ccc2c(c1)OCO2,4.71,–
O=C(O)COc1ccc2c(c1)O/C(=C\c1ccco1)C2=O,4.96,–
Cc1nn(C)cc1-c1cc(-c2nnc(Nc3ccn(Cc4ccccc4Cl)n3)s2)no1,5.43,Active
CCOc1cc(-c2nc3c(cnn3-c3ccccc3)c(=O)[nH]2)ccc1O,4.40,–
COc1ccc(-c2nc3c(sc4nc(C(F)F)cc(C)c43)c(=O)[nH]2)cc1Cn1cc([N+](=O)[O-])cn1,5.11,Active
O=c1[nH]nc(-c2ccco2)c2cn(-c3cccc([N+](=O)[O-])c3)nc12,4.33,–
CCC(=O)Nc1nnc(-c2ccc([N+](=O)[O-])cc2)s1,4.55,–
COc1cccc(NC(=O)Nc2nnc(-c3ccc([N+](=O)[O-])cc3)s2)c1,5.12,Active
Nc1nnc(-c2ccc(C(=O)O)cc2)s1,4.56,–
O=c1oc2ccc([N+](=O)[O-])cc2cc1-c1csc(Nc2ccccc2)n1,5.07,Active
O=C1OC(c2ccc(-c3ccccc3)cc2)=N/C1=C/c1ccc(C(=O)O)cc1,4.86,–
COc1cc(/C=C2/C(=O)NN(c3ccc(C)c(Cl)c3)C2=O)ccc1OCC(=O)O,4.54,–
O=C(COC(=O)c1c[nH]c2ccccc12)Nc1ccc2[nH]c(=O)[nH]c2c1,4.55,–
Nc1nc2ccc(NC(=S)NC(=O)c3cccs3)cc2s1,4.60,–
CCOc1ccc(C2=N/C(=C/c3ccc(C(=O)O)cc3)C(=O)O2)cc1,4.37,–
O=c1[nH]n2c(=O)c3c([nH]c2c1/N=N/c1ccccc1Cl)CCC3,5.42,Active
Cc1cc(Br)c(N2C(=O)NC(=O)C(/C=N/c3ccc(C(=O)O)c(O)c3)C2=O)cc1C (stereo unspecified),4.54,–
O=C(COC(=O)c1cc(Br)c(Br)s1)Nc1ccc2[nH]c(=O)[nH]c2c1,4.82,–
